Test results reported in patent US9580396B2, “C6-spiro iminothiadiazine dioxides as BACE inhibitors, compositions, and their use” (Merck Sharp & Dohme Corp., priority 2012, dated 2017).

Tests used:
[1] = target: purified human autoBACE-2 (Homo sapiens (Human), UniProt Q9Y5Z0); experiment: BACE-2 Assay (BACE-HTRF assay); type: biochemical; conditions: Ki calculated from IC50 using the Cheng-Prusoff equation; QSY7-EISEVNLDAEFC-Eu-amide substrate, pH 5.0; read-out: BACE2 Ki
Experimental: Inhibitor IC50s at purified human autoBACE-2 are determined in a time-resolved endpoint proteolysis assay that measures hydrolysis of the QSY7-[…]-Eu-amide FRET peptide substrate (BACE-HTRF assay). […] DMSO is present at 5% final concentration in the assay. Following laser excitation of sample wells at 320 nm, the fluorescence signal at 620 nm is collected for 400 ms following a 50 μs delay on a RUBYstar HTRF plate reader (BMG Labtechnologies). Raw RFU data is normalized to maximum (1.0 nM BACE/DMSO) and minimum (no enzyme/DMSO) RFU values. […] The Ki values are calculated from the IC50 using the Cheng-Prusoff equation.

[2] = target: soluble human BACE1 catalytic domain (Homo sapiens (Human), UniProt P56817); experiment: BACE1 HTRF FRET Assay; type: biochemical; conditions: Ki calculated from IC50 using the Cheng-Prusoff equation; QSY7-APPswe-Eu substrate, pH 5.0
Excerpt: Na^+-Acetate pH 5.0; 1% Brij-35; Glycerol; Dimethyl Sulfoxide (DMSO); Recombinant human soluble BACE1 catalytic domain (>95% pure); APP Swedish mutant peptide substrate (QSY7-APP^swe-Eu): QSY7-EISEVNLDAEFC-Europium-amide.
A homogeneous time-resolved FRET assay can be used to determine IC50 values for inhibitors of the soluble human BACE1 catalytic domain. This assay monitors the increase of 620 nm fluorescence that resulted from BACE1 cleavage of an APPswedish APP^swe mutant peptide FRET substrate (QSY7-EISEVNLDAEFC-Europium-amide). This substrate contains an N-terminal QSY7 moiety that serves as a quencher of the C-terminal Europium fluorophore (620 nm Em). In the absence of enzyme activity, 620 nm fluorescence is low in the assay and increased linearly over 3 hours in the presence of uninhibited BACE1 enzyme Inhibition of BACE1 cleavage of the QSY7-APP^swe-Eu substrate by inhibitors is manifested as a suppression of 620 nm fluorescence.
Varying concentrations of inhibitors at 3× the final desired concentration in a volume of 10 ul are preincubated with purified human BACE1 catalytic domain (3 nM in 10 μl) for 30 minutes at 30° C. in reaction buffer containing 20 mM Na-Acetate pH 5.0, 10% glycerol, 0.1% Brij-35 and 7.5% DSMO. Reactions are initiated by addition of 10 μl of 600 nM QSY7-APP^swe-Eu substrate (200 nM final) to give a final reaction volume of 30 μl in a 384 well Nunc HTRF plate. The reactions are incubated at 30° C. for 1.5 hours. The 620 nm fluorescence is then read on a Rubystar HTRF plate reader (BMG Labtechnologies) using a 50 millisecond delay followed by a 400 millisecond acquisition time window Inhibitor IC50 values are derived from non-linear regression analysis of concentration response curves. Ki values are then calculated from IC50 values using the Cheng-Prusoff equation using a previously determined […] of 8 μM for the QSY7-APP^swe-Eu substrate at BACE1.

purified human autoBACE-2, sequence (Q9Y5Z0 63-473): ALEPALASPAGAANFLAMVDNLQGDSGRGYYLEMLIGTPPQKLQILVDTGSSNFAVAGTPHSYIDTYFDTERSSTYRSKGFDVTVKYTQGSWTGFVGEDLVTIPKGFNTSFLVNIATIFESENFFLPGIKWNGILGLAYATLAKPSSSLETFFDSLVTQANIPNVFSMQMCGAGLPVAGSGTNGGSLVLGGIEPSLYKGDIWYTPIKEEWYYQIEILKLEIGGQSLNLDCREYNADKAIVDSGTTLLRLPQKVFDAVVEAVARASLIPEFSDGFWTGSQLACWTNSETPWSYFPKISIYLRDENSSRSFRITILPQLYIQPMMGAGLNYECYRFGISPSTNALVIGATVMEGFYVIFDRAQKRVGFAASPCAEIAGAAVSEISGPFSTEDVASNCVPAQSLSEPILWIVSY
soluble human BACE1 catalytic domain, sequence (P56817 75-416): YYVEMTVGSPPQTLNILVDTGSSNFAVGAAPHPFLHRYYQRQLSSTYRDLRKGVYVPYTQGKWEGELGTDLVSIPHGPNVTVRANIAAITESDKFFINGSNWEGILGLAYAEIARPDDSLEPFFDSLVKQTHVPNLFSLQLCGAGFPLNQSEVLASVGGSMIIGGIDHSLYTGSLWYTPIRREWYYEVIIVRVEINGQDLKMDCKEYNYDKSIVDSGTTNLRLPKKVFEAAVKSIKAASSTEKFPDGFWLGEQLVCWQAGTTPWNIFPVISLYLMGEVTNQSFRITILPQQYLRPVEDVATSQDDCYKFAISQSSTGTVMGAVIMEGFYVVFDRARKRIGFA

Structure (SMILES): CN1C(=N)N[C@@]2(CCOc3ccc(NC(=O)c4ncc(C(F)(F)F)cn4)cc32)CS1(=O)=O [Example 2d]
- Ki [1]: 780 nM
- Ki [2]: 579 nM

Structure (SMILES): CN1C(=N)N[C@@]2(CCOc3ccc(NC(=O)c4cnc(OCC(F)(F)F)cn4)cc32)CS1(=O)=O [Example 2g]
- Ki [1]: 699 nM
- Ki [2]: 70 nM

Structure (SMILES): CN1C(=N)N[C@@]2(CCCc3ccc(NC(=O)c4ccc(OC(F)F)cn4)cc32)CS1(=O)=O [Example 5c]
- Ki [1]: 126 nM
- Ki [2]: 59 nM

Structure (SMILES): Cc1nc(C(=O)Nc2ccc3c(c2)[C@]2(CCO3)CS(=O)(=O)N(C)C(=N)N2)no1 [Example 2q]
- Ki [1]: 31 nM
- Ki [2]: 367 nM

Structure (SMILES): CN1C(=N)N[C@@]2(CCOc3ccc(NC(=O)c4ccc(F)cn4)cc32)CS1(=O)=O [Example 2t]
- Ki [1]: 31 nM
- Ki [2]: 205 nM
